“Also recorded” adds a separate entry of the source.
Tested on: advance progressive cancers refractory to, or relapsed on, all conventional therapies
Experiment: ProGem1 dose escalation clinical study of NUC-1031
Assay type: in vivo, human
Set-up: CA125 level: unit not given here
Source text: The following data were generated in clinical studies of NUC-1031 in human patients with advance progressive cancers that are refractory to, or have relapsed on, all conventional therapies that have been used to date. The results clearly illustrate the ability of NUC-1031 to successfully treat refractory cancers.
Although the primary objectives of the dose escalation part of the study were to determine the Recommended Phase II Dose (RP2D) and safety profile, secondary objectives included determining the PK profile, however effective treatment of patients with a range of refractory cancers has also been observed as part of this study.
A total of 68 patients have been entered into this dose escalation study, of which 49 were evaluable for clinical response in that they have received at least 2 Cycles of NUC-1031 and were therefore eligible for a RECIST 1.1 assessment.
NUC-1031 was administered as a 5 to 30 minute intravenous slow bolus injection. • Schedule A: NUC-1031 was administered on days 1, 8, 15 of a 4 weekly Cycle. • Schedule B: NUC-1031 was administered on days 1, 5, 8, 12, 15, 19, of a 4 weekly Cycle. Evaluable Patients [n=49]
Evaluable patients were patients that received ≥2 Cycles of NUC-1031 and were therefore eligible for a RECIST 1.1 assessment at the end of Cycle 2. Where the disease response duration, measured in months, is followed by a “+” this indicates ongoing disease control as of the latest cut-off date.

[1] = Patient 004, breast cancer, 500 mg/m^2 weekly
[2] = Patient 005, ovarian cancer, 500 mg/m^2 weekly
[3] = Patient 006, cholangiocarcinoma, 375 mg/m^2 twice weekly, then 500 mg/m^2
[4] = Patient 007, colorectal cancer, 375 mg/m^2 twice weekly, then 500 mg/m^2 weekly
[5] = Patient 008, cancer of unknown primary, 375 mg/m^2 twice weekly
[6] = Patient 010, endometrial cancer, 750 then 500 mg/m^2 weekly
[7] = Patient 011, uterine carcinosarcoma, 375 mg/m^2 twice weekly
[8] = Patient 011, uterine carcinosarcoma, 375 mg/m^2 twice weekly, then 625 mg/m^2 weekly
[9] = Patient 012, cholangiocarcinoma, 375 mg/m^2 twice weekly, then 625 mg/m^2 weekly
[10] = Patient 013, cervical cancer, 750, 625, then 500 mg/m^2 weekly
[11] = Patient 017, lung cancer, 750 then 625 mg/m^2 weekly
[12] = Patient 018, lung cancer, 625 mg/m^2 weekly
[13] = Patient 021, fallopian tube cancer, 625 mg/m^2 weekly
[14] = Patient 025, mesothelioma, 725 mg/m^2 weekly
[15] = Patient 026, colorectal cancer, 725 mg/m^2 weekly
[16] = Patient 027, ovarian cancer, 725, 675, then 625 mg/m^2 weekly
[17] = Patient 029, breast cancer, 725 mg/m^2 weekly
[18] = Patient 030, ovarian cancer, 725 mg/m^2 weekly
[19] = Patient 032, oesophageal cancer, 750 mg/m^2 weekly
[20] = Patient 033, cholangiocarcinoma, 750 mg/m^2 weekly
[21] = Patient 036, renal carcinoma, 825 then 750 mg/m^2 weekly
[22] = Patient 037, pancreatic cancer, 1,000 then 900 mg/m^2 weekly

## C[C@H](NP(=O)(OC[C@H]1O[C@@H](n2ccc(N)nc2=O)C(F)(F)[C@@H]1O)Oc1ccccc1)C(=O)OCc1ccccc1 (stereo partly drawn) [NUC-1031, 2′-deoxy-2′,2′-difluoro-D-cytidine-5′-O-[phenyl (benzoxy-L-alaninyl)] phosphate]
[1]
  Best response to RECIST: Stable Disease
  Duration of response to RECIST: 12 months
[2]
  Best response to RECIST: Stable Disease
  Duration of response to RECIST: 15 months
Patient 005, ovarian cancer, end of Cycle 6 (208 at start of study)
  CA125 level: 140
[3]
  Best response to RECIST: Stable Disease
  Duration of response to RECIST: 3 months
Patient 006, cholangiocarcinoma, after two doses (from 125,002)
  CA19.9 level: 59,285
[4]
  Adverse events (grade): thrombocytopaenia (G3)
  Best response to RECIST: Stable Disease
  Duration of response to RECIST: 3 months
Patient 007, colorectal cancer, after treatment (from 361)
  CEA level: 286
Patient 007, colorectal cancer, after treatment (from 3,151)
  CA19.9 level: 2,957
[5]
  Adverse events (grade): transient (G3) transaminitis (ALT and AST)
  Best response to RECIST: Stable Disease
  Duration of response to RECIST: 3 months
[6]
  Adverse events (grade): neutropenia (G3); also recorded: transient Grade 3 anaemia
  Best response to RECIST: Stable Disease
  Duration of response to RECIST: 9 months
Patient 010, endometrial cancer, after treatment (from 727)
  CA125 level: 488
[7]
  Adverse events (grade): transient neutropaenia (G3); also recorded: low haemoglobin (G2)
  Reduction in tumour volume: 26%
[8]
  Best response to RECIST: Stable Disease
  Duration of response to RECIST: 4 months
[9]
  Best response to RECIST: Stable Disease
  Duration of response to RECIST: 8 months
[10]
  Best response to RECIST: Partial Response
  Duration of response to RECIST: 9 months
  PFS: 11 months
Patient 014, mesothelioma, 750 then 625 mg/m^2 weekly
  Best response to RECIST: Progressive Disease
Patient 015, cancer (unknown primary), 750, 625, then 500 mg/m^2 weekly
  Best response to RECIST: Partial Response
Patient 015, cancer (unknown primary), CT scan on 9 Jan. 2015
  Reduction in tumour size: approximately 58%
Patient 015, cancer (unknown primary), Cycle 1 Day 8
  Adverse events (grade): thrombocytopenia (G3); also recorded: lymphopenia (G3); also recorded: neutropenia (G2)
Patient 015, cancer (unknown primary), ongoing
  PFS: ≥ 24 months
Patient 015, cancer (unknown primary), ongoing, 750, 625, then 500 mg/m^2 weekly
  Duration of response to RECIST: ≥ 20 months
[11]
  Best response to RECIST: Partial Response
  Duration of response to RECIST: 3 Months
  PFS: 10 Months
[12]
  Best response to RECIST: Stable Disease
  Duration of response to RECIST: 4 months
[13]
  Best overall response: Partial Response
  Duration of Partial Response according to GCIG criteria: 9 months
  Duration of Partial Response according to RECIST: 3 months
Patient 021, fallopian tube cancer, baseline to end of Cycle 6
  CA125 reduction from baseline: 91%
Patient 021, fallopian tube cancer, end of Cycle 6 (baseline 372)
  CA125 level: 35
Patient 024, cancer of unknown primary, 675 mg/m^2 weekly
  Best response to RECIST: Progressive Disease
[14]
  Best response to RECIST: Stable Disease
  Duration of response to RECIST: 4 months
[15]
  Best response to RECIST: Stable Disease
  Duration of response to RECIST: 4 months
Patient 027, ovarian cancer, 725 mg/m^2, following Cycle 1 Day 1, a DLT
  Adverse events (grade): elevated ALT (G3)
[16]
  Best response to RECIST: Stable Disease
  Duration of response to RECIST: 8 months
  Reduction in tumour volume: 23%
Patient 027, ovarian cancer, day 7 after Cycle 1 Day 1 at 725 mg/m^2 (96 at baseline)
  ALT level: 256 U/L
Patient 027, ovarian cancer, end of Cycle 6 (188 at baseline)
  CA125 level: 99
[17]
  Best response to RECIST: Stable Disease
  Duration of response to RECIST: 4 months
[18]
  Best response to RECIST: Stable Disease
  Duration of response to RECIST: 3 months
Patient 031, cholangiocarcinoma, 750 mg/m^2 weekly, end of Cycle 2 CT scan
  Best response to RECIST: Progressive Disease
[19]
  Best response to RECIST: Stable Disease
  Duration of response to RECIST: 2 months
[20]
  Best response to RECIST: Stable Disease
  Duration of response to RECIST: 3 months
Patient 036, renal carcinoma, 825 mg/m^2, following Cycle 5 Day 1
  Adverse events (grade): thrombocytopenia (G3)
[21]
  Best response to RECIST: Stable Disease
  Duration of response to RECIST: 5 months
Patient 036, renal carcinoma, end of Cycle 4 CT scan
  Reduction in tumour volume: 7%
[22]
  Best response to RECIST: Partial Response
  Duration of response to RECIST: 1 month
  PFS: 4 months
Patient 037, pancreatic cancer, CT scan on 29 Apr. 2014
  Reduction in tumour volume: 30%
Patient 037, pancreatic cancer, after treatment (536 at baseline)
  CEA level: 42
Patient 037, pancreatic cancer, after treatment (15,000 at baseline)
  CA19.9 level: 4,000
Patient 037, pancreatic cancer, end of Cycle 2 CT scan
  Reduction in tumour volume: 18.4%
Patient 038, ovarian cancer, 900 mg/m^2 weekly
  Best response to RECIST: Progressive Disease
Patient 038, ovarian cancer, end of Cycle 2 scan
  Increase in tumour volume: 25%

— patent publication US11400107B2, “Cancer treatments” (NuCana plc, priority 2016, dated 2022)
